Data reported in US20120053200A1, “BACE 2 INHIBITORS” (priority 2010, published 2012).

molecular target: T1, BACE2 (Rattus norvegicus, UniProt Q6IE75); assay: Assay for BACE inhibition by measuring cellular TMEM27 cleavage (INS-TMEM27 cells, ELISA of shed TMEM27); type: cell-based; conditions: inhibition of human TMEM27 cleavage by endogenous cellular BACE2 in INS1e-derived INS-TMEM27 rat cell line; ELISA of shed TMEM27 in supernatant
T1 construct: endogenous cellular BACE2 in the Ins1e rat cell line; endogenous in cells; host or cells: INS-TMEM27 (INS1e-derived rat beta-cell line with doxycycline-inducible full-length hTMEM27)
T1 sequence (Q6IE75 63-514): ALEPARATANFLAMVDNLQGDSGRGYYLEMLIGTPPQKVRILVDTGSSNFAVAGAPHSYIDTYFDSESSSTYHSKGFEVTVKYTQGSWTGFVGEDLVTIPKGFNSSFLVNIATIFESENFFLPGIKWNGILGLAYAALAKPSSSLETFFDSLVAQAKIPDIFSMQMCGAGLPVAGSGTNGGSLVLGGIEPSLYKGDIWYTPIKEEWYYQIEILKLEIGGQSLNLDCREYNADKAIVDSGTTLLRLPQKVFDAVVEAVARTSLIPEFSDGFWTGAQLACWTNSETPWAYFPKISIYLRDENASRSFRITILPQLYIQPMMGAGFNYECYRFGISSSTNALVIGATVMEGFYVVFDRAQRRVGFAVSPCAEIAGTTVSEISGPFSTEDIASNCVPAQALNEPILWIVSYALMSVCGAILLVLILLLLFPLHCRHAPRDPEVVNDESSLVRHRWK
Description: Assay for […] Inhibition by Measuring Cellular TMEM27 Cleavage
This assay uses the principle of inhibition of human TMEM27 cleavage by endogenous cellular BACE2 in the Ins1e rat cell line and shedding from the cell surface into the culture medium, followed by detection in an ELISA assay. Inhibition of BACE2 prevents the cleavage and shedding in a dose-dependent manner.
The stable cell line “INS-TMEM27” represents an INS1e-derived cell line with inducible expression (using the TetOn system) of full-length hTMEM27 in a doxycycline-dependent manner. The cells were cultured throughout the experiment in RPMI1640+Glutamax (Invitrogen) Penicillin/Streptomycin, 10% Fetal bovine serum, 100 mM pyruvate, […] beta-mercatptoethanol, 100 micrograms/ml G418 and 100 microgram/ml hygromycin and were grown in adherent culture at 37° C. in a standard CO2 cell culture incubator.
INS-TMEM27 cells were seeded in 96-well plates. After 2 days in culture, BACE2 inhibitor was added in a range of concentrations as required by the assay and after a further two hours, doxycycline was added to a final concentration of 500 ng/ml. The cells were incubated for a further 46 hours and the supernatant harvested for detection of shed TMEM27.
An ELISA assay (using a pair of mouse anti-human-TMEM27 antibodies, raised against the extracellular domain of TMEM27) was used for detection of TMEM27 in the culture medium. An IC50 for BACE2 inhibition was calculated using the ELISA readout for each inhibitor concentration with standard curve-fitting software.
The inhibitory activity, given as an IC50 value, of the compounds of Examples 1 to 32 and 34 to 74 were as follows.

**Q.** COc1cccc(CNC[C@@H](O)[C@H](Cc2ccccc2)NC(=O)c2cccc(C(=O)N3CCC[C@@H]3c3nc(C)cs3)c2)c1 [Example 20, N-[(1S,2R)-1-Benzyl-2-hydroxy-3-(3-methoxy-benzylamino)-propyl]-3-[(R)-2-(4-methyl-thiazol-2-yl)-pyrrolidine-1-carbonyl]-benzamide] was tested. Which IC50 did it give?
**A.** The IC50 was 143 nM.

**Q.** Which IC50 does the source give for CN(c1cc(C(=O)N[C@@H](Cc2ccccc2)[C@H](O)CNCc2cccc(C(F)(F)F)c2)cc(C(=O)N2CCCC2c2cccs2)c1)S(C)(=O)=O (stereo partly drawn) [Example 53, N-[(1S,2R)-1-Benzyl-2-hydroxy-3-(3-trifluoromethyl-benzylamino)-propyl]-3-(methanesulfonyl-methyl-amino)-5-(2-thiophen-2-yl-pyrrolidine-1-carbonyl)-benzamide] here?
**A.** The IC50 was 29 nM.

**Q.** Which IC50 does the source give for Cc1cc(C(=O)N[C@@H](Cc2ccccc2)[C@H](O)CNCc2cccc(OC(F)(F)F)c2)cc(C(=O)N2CCCC2c2cccs2)c1 (stereo partly drawn) [Example 46, N-[(1S,2R)-1-Benzyl-2-hydroxy-3-(3-trifluoromethoxy-benzylamino)-propyl]-3-methyl-5-(2-thiophen-2-yl-pyrrolidine-1-carbonyl)-benzamide] here?
**A.** The IC50 was 1 nM.

**Q.** How did the IC50 turn out when O=C(NCc1ccccn1)c1cccc(C(=O)N[C@@H](Cc2ccccc2)[C@H](O)CNCc2cccc(C(F)(F)F)c2)c1 [Example 7, N-[(1S,2R)-1-Benzyl-2-hydroxy-3-(3-trifluoromethyl-benzylamino)-propyl]-N′-pyridin-2-ylmethyl-isophthalamide] was run?
**A.** Its IC50 is 478 nM.

**Q.** CCn1cc(CNC[C@@H](O)[C@H](Cc2ccccc2)NC(=O)c2cccc(C(=O)N3CCCC3c3cccs3)c2)cn1 (stereo partly drawn) [Example 31, N-{(1S,2R)-1-Benzyl-3-[(1-ethyl-1H-pyrazol-4-ylmethyl)-amino]-2-hydroxy-propyl}-3-(2-thiophen-2-yl-pyrrolidine-1-carbonyl)-benzamide] was tested. Which IC50 did it give?
**A.** The IC50 was 239 nM.

**Q.** With O=C(N[C@@H](Cc1ccccc1)[C@H](O)CNCc1cccc(C(F)(F)F)c1)c1cccc(C(=O)N2CCCC2c2ccc(F)c(Cl)c2)c1 (stereo partly drawn) [Example 59, N-[(1S,2R)-1-Benzyl-2-hydroxy-3-(3-trifluoromethyl-benzylamino)-propyl]-3-[2-(3-chloro-4-fluoro-phenyl)-pyrrolidine-1-carbonyl]-benzamide] as the molecule, how does the IC50 read?
**A.** Its IC50 is 33 nM.

**Q.** How did the IC50 turn out when “N-[(1S,2R)-1-Benzyl-2-hydroxy-3-(3-trifluoromethyl-benzylamino)-propyl]-3-(methanesulfonyl-methyl-amino)-5-(2-phenyl-pyrrolidine-1-carbonyl)-benzamide [Example 50]” was run?
**A.** Its IC50 is 3 nM.

**Q.** How did the IC50 turn out when O=C(N[C@@H](Cc1ccccc1)[C@H](O)CNCc1cccc(C(F)(F)F)c1)c1cccc(C(=O)N2CCC[C@H]2Cc2ccccc2)c1 [Example 65, N-[(1S,2R)-1-Benzyl-2-hydroxy-3-(3-trifluoromethyl-benzylamino)-propyl]-3-((S)-2-benzyl-pyrrolidine-1-carbonyl)-benzamide] was run?
**A.** The IC50 was 51 nM.

**Q.** Which IC50 does the source give for Cc1ccc(C2CCCN2C(=O)c2cccc(C(=O)N[C@@H](Cc3ccccc3)[C@H](O)CNCc3cccc(C(F)(F)F)c3)c2)cc1 (stereo partly drawn) [Example 55, N-[(1S,2R)-1-Benzyl-2-hydroxy-3-(3-trifluoromethyl-benzylamino)-propyl]-3-(2-p-tolyl-pyrrolidine-1-carbonyl)-benzamide] here?
**A.** Its IC50 is 42 nM.

**Q.** For CCn1cc(CNC[C@@H](O)[C@H](Cc2ccccc2)NC(=O)c2cc(C)cc(C(=O)N3CCC[C@@H]3c3nc(C)cs3)c2)cn1 [Example 34, N-{(1S,2R)-1-Benzyl-3-[(1-ethyl-1H-pyrazol-4-ylmethyl)-amino]-2-hydroxy-propyl}-3-methyl-5-[(R)-2-(4-methyl-thiazol-2-yl)-pyrrolidine-1-carbonyl]-benzamide], which IC50 is on record?
**A.** The IC50 was 145 nM.

**Q.** O=C(N[C@@H](Cc1ccccc1)[C@H](O)CNCc1cccc(OC(F)(F)F)c1)c1cccc(C(=O)N2CCC(c3ccccn3)C2)c1 (stereo partly drawn) [Example 9, N-[(1S,2R)-1-Benzyl-2-hydroxy-3-(3-trifluoromethoxy-benzylamino)-propyl]-3-(3-pyridin-2-yl-pyrrolidine-1-carbonyl)-benzamide] was tested. Which IC50 did it give?
**A.** Its IC50 is 263 nM.

**Q.** For CC(C)(C)C1CCCN1C(=O)c1cccc(C(=O)N[C@@H](Cc2ccccc2)[C@H](O)CNCc2cccc(C(F)(F)F)c2)c1 (stereo partly drawn) [Example 73, N-[(1S,2R)-1-Benzyl-2-hydroxy-3-(3-trifluoromethyl-benzylamino)-propyl]-3-(2-tert-butyl-pyrrolidine-1-carbonyl)-benzamide], which IC50 is on record?
**A.** The IC50 was 56 nM.

**Q.** For Cc1csc(CN(C)C(=O)c2cc(C(=O)N[C@@H](Cc3ccccc3)[C@H](O)CNCc3cncc(C(C)(C)F)c3)cc(N(C)S(C)(=O)=O)c2)n1 [Example 74, N-((1S,2R)-1-Benzyl-3-{[5-(1-fluoro-1-methyl-ethyl)-pyridin-3-ylmethyl]-amino}-2-hydroxy-propyl)-5-(methanesulfonyl-methyl-amino)-N′-methyl-N′-(4-methyl-thiazol-2-ylmethyl)-isophthalamide], which IC50 is on record?
**A.** The IC50 was 255 nM.

**Q.** Which IC50 does the source give for Cc1csc([C@H]2CCCN2C(=O)c2cc(C(=O)N[C@@H](Cc3ccccc3)[C@H](O)CNCc3cccc(C(F)(F)F)c3)cc(N(C)S(C)(=O)=O)c2)n1 [Example 48, N-[(1S,2R)-1-Benzyl-2-hydroxy-3-(3-trifluoromethyl-benzylamino)-propyl]-3-(methanesulfonyl-methyl-amino)-5-[(R)-2-(4-methyl-thiazol-2-yl)-pyrrolidine-1-carbonyl]-benzamide] here?
**A.** Its IC50 is 81 nM.

**Q.** For O=C(N[C@@H](Cc1ccccc1)[C@H](O)CNCc1cccc(C(F)(F)F)c1)c1cccc(C(=O)N2CCCC2C2CCCCC2)c1 (stereo partly drawn) [Example 69, N-[(1S,2R)-1-Benzyl-2-hydroxy-3-(3-trifluoromethyl-benzylamino)-propyl]-3-(2-cyclohexyl-pyrrolidine-1-carbonyl)-benzamide], which IC50 is on record?
**A.** Its IC50 is 7 nM.

**Q.** For Cc1cc(C(=O)N[C@@H](Cc2ccccc2)[C@H](O)CNCc2cccc(C(F)(F)F)c2)cc(C(=O)N2CCC[C@@H]2c2nc(C)cs2)c1 [Example 49, N-[(1S,2R)-1-Benzyl-2-hydroxy-3-(3-trifluoromethyl-benzylamino)-propyl]-3-methyl-5-[(R)-2-(4-methyl-thiazol-2-yl)-pyrrolidine-1-carbonyl]-benzamide], which IC50 is on record?
**A.** The IC50 was 119 nM.

**Q.** For Cc1csc(CN(C)C(=O)c2cccc(C(=O)N[C@@H](Cc3ccccc3)[C@H](O)CNCc3cccc(OC(F)(F)F)c3)c2)n1 [Example 2, N-[(1S,2R)-1-Benzyl-2-hydroxy-3-(3-trifluoromethoxy-benzylamino)-propyl]-N′-methyl-N′-(4-methyl-thiazol-2-ylmethyl)-isophthalamide], which IC50 is on record?
**A.** Its IC50 is 258 nM.

**Q.** For CN(c1cc(C(=O)N[C@@H](Cc2ccccc2)[C@H](O)CNCc2cccc(OC(F)(F)F)c2)cc(C(=O)N2CCCC2c2cccs2)c1)S(C)(=O)=O (stereo partly drawn) [Example 45, N-[(1S,2R)-1-Benzyl-2-hydroxy-3-(3-trifluoromethoxy-benzylamino)-propyl]-3-(methanesulfonyl-methyl-amino)-5-(2-thiophen-2-yl-pyrrolidine-1-carbonyl)-benzamide], which IC50 is on record?
**A.** Its IC50 is 11 nM.

**Q.** Cc1cc(C(=O)N[C@@H](Cc2ccccc2)[C@H](O)CNCc2cccc(OC(F)(F)F)c2)cc(C(=O)N(C)Cc2nc(C)cs2)c1 [Example 47, N-[(1S,2R)-1-Benzyl-2-hydroxy-3-(3-trifluoromethoxy-benzylamino)-propyl]-5,N′-dimethyl-N′-(4-methyl-thiazol-2-ylmethyl)-isophthalamide] was tested. Which IC50 did it give?
**A.** The IC50 was 117 nM.

**Q.** For CCn1cc(CNC[C@@H](O)[C@H](Cc2ccccc2)NC(=O)c2cc(C(=O)N3CCCC3c3ccccc3)cc(N(C)S(C)(=O)=O)c2)cn1 (stereo partly drawn) [Example 35, N-{(1S,2R)-1-Benzyl-3-[(1-ethyl-1H-pyrazol-4-ylmethyl)-amino]-2-hydroxy-propyl}-3-(methanesulfonyl-methyl-amino)-5-(2-phenyl-pyrrolidine-1-carbonyl)-benzamide], which IC50 is on record?
**A.** Its IC50 is 0.2 nM.

**Q.** Which IC50 does the source give for O=C(N[C@@H](Cc1ccccc1)[C@H](O)CNCc1cccc(C(F)(F)F)c1)c1cccc(C(=O)N2CCCC2c2cccs2)c1 (stereo partly drawn) [Example 19, N-[(1S,2R)-1-Benzyl-2-hydroxy-3-(3-trifluoromethyl-benzylamino)-propyl]-3-(2-thiophen-2-yl-pyrrolidine-1-carbonyl)-benzamide] here?
**A.** The IC50 was 8 nM.
